Our source for the Ki values is patent US20240376090A1, “ISOXAZOLE DERIVATIVES AS MODULATORS OF THE 5-HT2A SEROTONIN RECEPTOR USEFUL FOR THE TREATMENT OF DISORDERED RELATED THERETO” (Arena Pharmaceuticals, Inc., priority 2020, published 2024).

By Ki is commonly meant a measure of affinity in units of concentration, obtained from inhibition or displacement.

5-HT2A receptor, sequence (P28223 whole entry): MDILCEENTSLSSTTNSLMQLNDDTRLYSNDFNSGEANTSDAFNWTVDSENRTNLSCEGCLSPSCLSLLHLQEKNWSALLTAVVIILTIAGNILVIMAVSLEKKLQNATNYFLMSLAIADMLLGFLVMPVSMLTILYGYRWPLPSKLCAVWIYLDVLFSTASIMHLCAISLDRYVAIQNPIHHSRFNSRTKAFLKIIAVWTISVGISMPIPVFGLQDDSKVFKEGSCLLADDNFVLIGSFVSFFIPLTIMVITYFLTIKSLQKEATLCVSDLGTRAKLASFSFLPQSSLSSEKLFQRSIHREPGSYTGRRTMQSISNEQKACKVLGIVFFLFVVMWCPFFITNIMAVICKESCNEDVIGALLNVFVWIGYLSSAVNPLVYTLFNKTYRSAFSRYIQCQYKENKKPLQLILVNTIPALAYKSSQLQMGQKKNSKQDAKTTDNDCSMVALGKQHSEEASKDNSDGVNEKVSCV

The target of this assay is 5-HT2A receptor (Homo sapiens (Human), UniProt P28223). The assay is described as follows: Radioligand binding assay ([3H]5-HT competition), 5-HT2A. The conditions noted are these: [3H]5-HT radioligand, membranes of HEK293 cells expressing recombinant 5-HT2A; Ki from IC50 by Cheng-Prusoff; read-out: 5-HT2A serotonin binding Ki value. The method, then:
Competition binding experiments consisted of addition of 5 μL of serially diluted test compound, 50 μL of radioligand stock diluted in Assay Buffer (20 mM HEPES, pH 7.4, 10 mM MgCl2), and 145 μL of diluted membrane expressing the receptor of interest to 96-well microtiter plates, which were then incubated for one hour at room temperature. Assay incubations were terminated by rapid filtration through Perkin Elmer GF/C filtration plates under vacuum pressure using a 96-well Packard filtration apparatus, followed by washing the filter plates several times with ice cold Assay Buffer. Plates were then dried at 45° C. for a minimum of four hours. Finally, 25 μL of BetaScint scintillation cocktail was added to each well and the plates were counted in a Packard TopCount scintillation counter. In each competition study, test compounds were assayed at 10 concentrations with three replicates at each test concentration. Dose-response curves were constructed to determine IC50 values and these were converted to corresponding Ki values using the Cheng-Prusoff equation.
Take `COC1CCN(CCOc2ccc(NC(=O)C3CC3)cc2-c2c(C)noc2C)CC1` [Compound 143, N-(3-(3,5-dimethylisoxazol-4-yl)-4-(2-(4-methoxypiperidin-1-yl)ethoxy)phenyl)cyclopropanecarboxamide]: the inhibition constant (Ki) worked out at 84 nM.
On to `CO[C@@H]1CCN(CCOc2ccc(NC(=O)C3CC3)cc2-c2c(C)noc2C)C1` [Compound 145, (R)—N-(3-(3,5-dimethylisoxazol-4-yl)-4-(2-(3-methoxypyrrolidin-1-yl)ethoxy)phenyl)cyclopropanecarboxamide], for which the inhibition constant (Ki) is 5.51 nM.
For `Cc1noc(C)c1-c1cc(NC(=O)C2CC2)ccc1OCCN1CC[C@H](O)C1` [Compound 147, (S)—N-(3-(3,5-dimethylisoxazol-4-yl)-4-(2-(3-hydroxypyrrolidin-1-yl)ethoxy)phenyl)cyclopropanecarboxamide] the value was 25.2 nM; for `Cc1noc(C)c1-c1cc(NC(=O)C2CC2)ccc1OCCN1CC[C@@H](O)C1` [Compound 148, (R)—N-(3-(3,5-dimethylisoxazol-4-yl)-4-(2-(3-hydroxypyrrolidin-1-yl)ethoxy)phenyl)cyclopropanecarboxamide], 71.6 nM.
With `CCN(C)CCOc1ccc(NC(=O)C2CC2)cc1-c1c(C)noc1C` [Compound 149, N-(3-(3,5-dimethylisoxazol-4-yl)-4-(2-(ethyl(methyl)amino)ethoxy)phenyl)cyclopropanecarboxamide], the Ki came to 13.9 nM.
Regarding `CCCN(C)CCOc1ccc(NC(=O)C2CC2)cc1-c1c(C)noc1C` [Compound 150, N-(3-(3,5-dimethylisoxazol-4-yl)-4-(2-(methyl(propyl)amino)ethoxy)phenyl)cyclopropanecarboxamide], the Ki stood at 13.5 nM.
As for `Cc1noc(C)c1-c1cc(NC(=O)C2CC2)ccc1OCCN(C)CC1CC1` [Compound 151, N-(4-(2-((cyclopropylmethyl)(methyl)amino)ethoxy)-3-(3,5-dimethylisoxazol-4-yl)phenyl)cyclopropanecarboxamide], the inhibition constant Ki was determined as 47.1 nM.
Regarding `Cc1noc(C)c1-c1cc(NC(=O)C2CC2)ccc1OCCN(C)C1CCC1` [Compound 152, N-(4-(2-(cyclobutyl(methyl)amino)ethoxy)-3-(3,5-dimethylisoxazol-4-yl)phenyl)cyclopropanecarboxamide], the inhibitory constant (Ki) was 41.7 nM.
For `CCN(CC)CCOc1ccc(NC(=O)C2CC2)cc1-c1c(C)noc1C` [Compound 153, N-(4-(2-(diethylamino)ethoxy)-3-(3,5-dimethylisoxazol-4-yl)phenyl)cyclopropanecarboxamide] the value was 109 nM; for `Cc1noc(C)c1-c1cc(NC(=O)C2CC2)ccc1OCCN1CC2(COC2)C1` [Compound 155, N-[3-(3,5-dimethylisoxazol-4-yl)-4-[2-(2-oxa-6-azaspiro[3.3]heptan-6-yl)ethoxy]phenyl]cyclopropanecarboxamide], 22 nM.
As to `Cc1noc(C)c1-c1cc(NC(=O)C2CC2)ccc1OCCN1CCN(C)C(=O)C1` [Compound 156, N-[3-(3,5-dimethylisoxazol-4-yl)-4-[2-(4-methyl-3-oxo-piperazin-1-yl)ethoxy]phenyl]cyclopropanecarboxamide], the inhibition constant Ki turned out to be 145 nM.
`Cc1noc(C)c1-c1cc(NC(=O)C2CC2)ccc1OCCN1CCC12COC2` [Compound 157, N-[3-(3,5-dimethylisoxazol-4-yl)-4-[2-(6-oxa-1-azaspiro[3.3]heptan-1-yl)ethoxy]phenyl]cyclopropanecarboxamide]: the Ki was 2070 nM.
In the case of `Cc1noc(C)c1-c1cc(NC(=O)C2CC2)ccc1OCCN1CCC(CC(=O)O)CC1` [Compound 158, 2-[1-[2-[4-(cyclopropanecarbonylamino)-2-(3,5-dimethylisoxazol-4-yl)phenoxy]ethyl]-4-piperidyl]acetic acid] it was 233 nM; in that of `Cc1noc(C)c1-c1cc(NC(=O)C2CC2)ccc1OCCN1[C@@H]2COC[C@H]1C2` [Compound 159, N-[3-(3,5-dimethylisoxazol-4-yl)-4-[2-[(1R,5S)-3-oxa-6-azabicyclo[3.1.1]heptan-6-yl]ethoxy]phenyl]cyclopropanecarboxamide], 1.61 nM.
Regarding `Cc1noc(C)c1-c1cc(NC(=O)C2CC2)ccc1OCCN1C[C@@H]2C[C@H]1CO2` [Compound 160, N-(4-(2-((1S,4S)-2-oxa-5-azabicyclo[2.2.1]heptan-5-yl)ethoxy)-3-(3,5-dimethylisoxazol-4-yl)phenyl)cyclopropanecarboxamide], the Ki was determined as 4.07 nM.
As for `Cc1noc(C)c1-c1cc(NC(=O)c2ccccc2)ccc1OCCN1C[C@@H]2C[C@H]1CO2` [Compound 161, N-[3-(3,5-dimethylisoxazol-4-yl)-4-[2-[(1S,4S)-2-oxa-5-azabicyclo[2.2.1]heptan-5-yl]ethoxy]phenyl]benzamide], the Ki is 6.4 nM.
`Cc1noc(C)c1-c1cc(NC(=O)C2(F)CC2)ccc1OCCN1C[C@@H]2C[C@H]1CO2` [Compound 162, N-[3-(3,5-dimethylisoxazol-4-yl)-4-[2-[(1S,4S)-2-oxa-5-azabicyclo[2.2.1]heptan-5-yl]ethoxy]phenyl]-1-fluoro-cyclopropanecarboxamide]: the Ki amounted to 4.7 nM.
Turning to `Cc1noc(C)c1-c1cc(NC(=O)c2ccnn2C)ccc1OCCN1C[C@@H]2C[C@H]1CO2` [Compound 163, N-[3-(3,5-dimethylisoxazol-4-yl)-4-[2-[(1S,4S)-2-oxa-5-azabicyclo[2.2.1]heptan-5-yl]ethoxy]phenyl]-2-methyl-pyrazole-3-carboxamide], the Ki was determined as 6.73 nM.
`Cc1noc(C)c1-c1cc(NC(=O)C2CC2)ccc1OCCN1C[C@H]2C[C@H]2C1` [Compound 164, N-[4-[2-[(1R,5S)-3-azabicyclo[3.1.0]hexan-3-yl]ethoxy]-3-(3,5-dimethylisoxazol-4-yl)phenyl]cyclopropanecarboxamide]: the Ki came out at 13.8 nM.
Take `Cc1noc(C)c1-c1cc(NC(=O)c2cccc(C(F)(F)F)c2)ccc1OCCN1CCOCC1` [Compound 165, N-[3-(3,5-dimethylisoxazol-4-yl)-4-(2-morpholinoethoxy)phenyl]-3-(trifluoromethyl)benzamide]: the inhibitory constant (Ki) was 1.08 nM.
Regarding `Cc1noc(C)c1-c1cc(NC(=O)C2CC2)ccc1OCCN1CCOCC1` [Compound 166, N-[3-(3,5-dimethylisoxazol-4-yl)-4-(2-morpholinoethoxy)phenyl]cyclopropanecarboxamide], the Ki was found to be 6.54 nM.
With `Cc1noc(C)c1-c1cc(NC(=O)C2CC2)ccc1OCCN1CCCC1` [Compound 167, N-[3-(3,5-dimethylisoxazol-4-yl)-4-(2-pyrrolidin-1-ylethoxy)phenyl]cyclopropanecarboxamide], the Ki is 7.71 nM.
For `CC(=O)N1CCN(CCOc2ccc(NC(=O)C3CC3)cc2-c2c(C)noc2C)CC1` [Compound 168, N-[4-[2-(4-acetylpiperazin-1-yl)ethoxy]-3-(3,5-dimethylisoxazol-4-yl)phenyl]cyclopropanecarboxamide] the value was 12.2 nM.
For the compound `Cc1noc(C)c1-c1cc(NC(=O)C2CC2)ccc1OC[C@@H]1CCCCN1` [Compound 170, (S)—N-(3-(3,5-dimethylisoxazol-4-yl)-4-(piperidin-2-ylmethoxy)phenyl)cyclopropanecarboxamide], the Ki came to 49.6 nM.
As for `Cc1noc(C)c1-c1cc(NC(=O)C2CC2)ccc1OC[C@@H]1COCCN1` [Compound 171, (S)—N-(3-(3,5-dimethylisoxazol-4-yl)-4-(morpholin-3-ylmethoxy)phenyl)cyclopropanecarboxamide], the Ki came out at 184 nM.
In the case of `Cc1noc(C)c1-c1cc(NC(=O)C2CC2)ccc1OC[C@H]1COCCN1` [Compound 173, (R)—N-(3-(3,5-dimethylisoxazol-4-yl)-4-(morpholin-3-ylmethoxy)phenyl)cyclopropanecarboxamide] it was 96.9 nM; in that of `Cc1noc(C)c1-c1cc(NC(=O)C2CC2)ccc1OCC1CCN1` (stereo not drawn) [Compound 174, N-[4-(azetidin-2-ylmethoxy)-3-(3,5-dimethylisoxazol-4-yl)phenyl]cyclopropanecarboxamide], 48 nM; in that of `Cc1noc(C)c1-c1cc(NC(=O)C2CC2)ccc1OC[C@H]1CCCN1` [Compound 175, (R)—N-(3-(3,5-dimethylisoxazol-4-yl)-4-(pyrrolidin-2-ylmethoxy)phenyl)cyclopropanecarboxamide], 41.6 nM.
Regarding `Cc1noc(C)c1-c1cc(NC(=O)C2CC2)ccc1OC[C@@H]1CCCN1` [Compound 176, (S)—N-(3-(3,5-dimethylisoxazol-4-yl)-4-(pyrrolidin-2-ylmethoxy)phenyl)cyclopropanecarboxamide], the Ki came to 395 nM.
Consider `Cc1noc(C)c1-c1cc(NC(=O)c2ccnn2C)ccc1OC[C@H]1CCCCN1` [Compound 177, N-[3-(3,5-dimethylisoxazol-4-yl)-4-[[(2R)-2-piperidyl]methoxy]phenyl]-2-methyl-pyridinerazole-3-carboxamide], for which the inhibition constant Ki turned out to be 4.22 nM.
Turning to `Cc1noc(C)c1-c1cc(NC(=O)C2CC2)ccc1O[C@H]1CCCNC1` [Compound 178, N-[3-(3,5-dimethylisoxazol-4-yl)-4-[[(3S)-3-piperidyl]oxy]phenyl]cyclopropanecarboxamide], the Ki turned out to be 718 nM.
As to `Cc1noc(C)c1-c1cc(NC(=O)C2CC2)ccc1O[C@@H]1CCCNC1` [Compound 179, (R)—N-(3-(3,5-dimethylisoxazol-4-yl)-4-(piperidin-3-yloxy)phenyl)cyclopropanecarboxamide], the Ki was 85.9 nM.
On to `Cc1noc(C)c1-c1cc(NC(=O)C2CC2)ccc1O[C@H]1CCNC1` [Compound 180, (S)—N-(3-(3,5-dimethylisoxazol-4-yl)-4-(pyrrolidin-3-yloxy)phenyl)cyclopropanecarboxamide], for which the inhibition constant Ki is 186 nM.
